Test results from ChEMBL document CHEMBL4257494, “Exploring eukaryotic versus prokaryotic ribosomal RNA recognition with aminoglycoside derivatives” (Medchemcomm, 2018).
pIC50: −log10 of the molar value. Calls of active or inactive are those of the source. The rule behind the calls is not given here.

Tests used:
[1] = Binding affinity to decoding-site of rRNA in Escherichia coli S30 extract assessed as inhibition of protein translation after 60 mins by coupled transcription/translation assay
[2] = Binding affinity to decoding-site of rRNA in rabbit reticulocytes assessed as inhibition of protein translation after 60 mins by coupled transcription/translation assay; assay type: cell-based, Oryctolagus cuniculus
[3] = Ratio of IC50 for inhibition of decoding-site of rRNA-mediated protein translation in rabbit reticulocytes to IC50 for inhibition of decoding-site of rRNA-mediated protein translation in Escherichia coli S30 extract; assay type: cell-based
Bacillus spizizenii = experiment: Antibacterial activity against Bacillus subtilis ATCC 6633 by double-microdilution method; assay type: functional
Escherichia coli = experiment: Antibacterial activity against Escherichia coli R477/100 by double-microdilution method; assay type: functional
HEK293 [4] = experiment: Binding affinity to decoding-site of rRNA in HEK293 cells assessed as read through activity at premature termination codon-containing CFTR G452X nonsense mutant gene (unknown origin) expressed in HEK293 cells after 16 hrs by dual luciferase reporter gene assay; assay type: cell-based; settings: Homo sapiens
HEK293 [5] = experiment: Binding affinity to decoding-site of rRNA in HEK293 cells assessed as read through activity at premature termination codon-containing PCDH15 R3X nonsense mutant gene (unknown origin) expressed in HEK293 cells after 16 hrs by dual luciferase reporter gene assay; assay type: cell-based; settings: Homo sapiens

Row | SMILES | pIC50 [1] | pIC50 [2] | Ratio IC50 [3] | MIC (Bacillus spizizenii) | MIC (Escherichia coli) | Activity (HEK293 [4]) | Activity (HEK293 [5])
1 | N[C@H]1[C@@H](O[C@H]2[C@H](O)[C@@H](O)[C@H](N)C[C@@H]2N)O[C@@H](C(=O)O)[C@@H](O)[C@@H]1O.O=S(=O)(O)O | 6.30 | 4.52 | 60 | 100 µg/mL | – | – | –
2 | C[C@H](N)[C@H]1O[C@H](O[C@@H]2[C@@H](O)[C@H](N)C[C@H](N)[C@H]2O[C@H]2O[C@@H](C(=O)O)[C@@H](O)[C@H](O)[C@H]2N)[C@H](O)[C@@H]1O.O=S(=O)(O)O | 2.89 | 3.22 | 0.5 | > 192 µg/mL | > 192 µg/mL | inactive | inactive
3 | NC[C@H]1O[C@H](O[C@@H]2[C@@H](O)[C@H](N)C[C@H](N)[C@H]2O[C@H]2O[C@@H](C(N)=O)[C@@H](O)[C@H](O)[C@H]2N)[C@H](O)[C@@H]1O.O=S(=O)(O)O | 5.70 | 4.70 | 10 | 83 µg/mL | – | – | –
4 | C[C@H](N)[C@H]1O[C@H](O[C@@H]2[C@@H](O)[C@H](N)C[C@H](N)[C@H]2O[C@H]2O[C@H](CO)[C@@H](O)[C@H](O)[C@H]2N)[C@H](O)[C@@H]1O.O=S(=O)(O)O | 2.62 | 2.50 | 1.3 | > 192 µg/mL | > 192 µg/mL | Active | Active
5 | NC[C@H]1O[C@H](O[C@@H]2[C@@H](O)[C@H](N)C[C@H](N)[C@H]2O[C@H]2O[C@@H](C(=O)O)[C@@H](O)[C@H](O)[C@H]2N)[C@H](O)[C@@H]1O.O=S(=O)(O)O | 3.38 | 3.30 | 1.2 | > 192 µg/mL | > 192 µg/mL | – | –
6 | N[C@H]1[C@@H](O[C@H]2[C@H](O)[C@@H](O)[C@H](N)C[C@@H]2N)O[C@H](CO)[C@@H](O)[C@@H]1O.O=S(=O)(O)O [PAROMAMINE SULFATE] | 5.00 | 3.10 | 80 | > 192 µg/mL | > 192 µg/mL | – | –
7 | NC[C@H]1O[C@H](O[C@@H]2[C@@H](O)[C@H](N)C[C@H](N)[C@H]2O[C@H]2O[C@H](CO)[C@@H](O)[C@H](O)[C@H]2N)[C@H](O)[C@@H]1O.O=S(=O)(O)O | 2.53 | 2.36 | 1.5 | > 192 µg/mL | > 192 µg/mL | Active | Active
8 | C[C@H](N)[C@H]1O[C@H](O[C@@H]2[C@@H](O)[C@H](N)C[C@H](N)[C@H]2O[C@H]2O[C@@H](C(N)=O)[C@@H](O)[C@H](O)[C@H]2N)[C@H](O)[C@@H]1O.O=S(=O)(O)O | 2.64 | 3.28 | 0.2 | > 192 µg/mL | > 192 µg/mL | inactive | inactive
9 | NC(=O)[C@@H]1O[C@H](O[C@H]2[C@H](O)[C@@H](O)[C@H](N)C[C@@H]2N)[C@H](N)[C@@H](O)[C@@H]1O.O=S(=O)(O)O | 2.89 | 3.15 | 0.5 | > 192 µg/mL | > 192 µg/mL | – | –
